According to patent US10450311B2, “Pesticidally active heterocyclic derivatives with sulphur containing substituents” (Syngenta Participations AG, priority 2014, dated 2019):

Assays:
Format in all cases: in vivo
[1] = system: Euschistus heros (Neotropical Brown Stink Bug); experiment: Activity against Euschistus heros, sprayed soybean leaf; conditions: 120 h, application rate of 200 ppm, N-2 nymphs on soybean leaf, 5 days after infestation
Method: Example B3: Activity Against Euschistus heros (Neotropical Brown Stink Bug)
Soybean leaf on agar in 24-well microtiter plates were sprayed with aqueous test solutions prepared from 10′000 ppm DMSO stock solutions. After drying the leaf were infested with N-2 nymphs. The samples were assessed for mortality 5 days after infestation.

[2] = system: Myzus persicae (Green Peach Aphid); experiment: Activity against Myzus persicae, sprayed sunflower leaf discs; conditions: foliar, 144 h, application rate of 200 ppm, aphid population of mixed ages on sunflower leaf discs, 6 days after infestation
Method: Example B5: Activity Against Myzus persicae (Green Peach Aphid)
(§1) Sunflower leaf discs were placed on agar in a 24-well microtiter plate and sprayed with aqueous test solutions prepared from 10′000 ppm DMSO stock solutions. After drying, the leaf discs were infested with an aphid population of mixed ages. The samples were assessed for mortality 6 days after infestation.

[3] = system: Tetranychus urticae (Two-Spotted Spider Mite); experiment: Activity against Tetranychus urticae, feeding/contact activity; conditions: foliar, 192 h
Method: Example B12: Activity Against Tetranychus urticae (Two-Spotted Spider Mite): Feeding/Contact Activity
Bean leaf discs on agar in 24-well microtiter plates were sprayed with aqueous test solutions prepared from 10′000 ppm DMSO stock solutions. After drying the leaf discs were infested with a mite population of mixed ages. The samples were assessed for mortality on mixed population (mobile stages) 8 days after infestation.

[4] = system: Bemisia tabaci (Cotton White Fly); experiment: Activity against Bemisia tabaci, sprayed cotton leaf discs; conditions: foliar, 144 h, application rate of 200 ppm, adult white flies on cotton leaf discs, 6 days after incubation
Method: Example B1: Activity Against Bemisia tabaci (Cotton White Fly)
Cotton leaf discs were placed on agar in 24-well microtiter plates and sprayed with aqueous test solutions prepared from 10′000 ppm DMSO stock solutions. After drying the leaf discs were infested with adult white flies. The samples were checked for mortality 6 days after incubation. […] A35, A36 and A47. A1. A2, A3, A8, A10, A14 and A12.

[5] = system: Diabrotica balteata (Corn Root Worm); experiment: Activity against Diabrotica balteata, sprayed maize sprouts; conditions: 96 h, application rate of 200 ppm, larvae on maize sprouts, 4 days after infestation
Method: Example B2: Activity Against Diabrotica balteata (Corn Root Worm)
Maize sprouts, placed on an agar layer in 24-well microtiter plates were treated with aqueous test solutions prepared from 10′000 ppm DMSO stock solutions by spraying. After drying, the plates were infested with […] (6 to 10 per well). The samples were assessed for mortality 4 days after infestation.

[6] = system: Frankliniella occidentalis (Western Flower Thrips); experiment: Activity against Frankliniella occidentalis, sprayed sunflower leaf discs; conditions: foliar, 168 h, application rate of 200 ppm, population of mixed ages on sunflower leaf discs, 7 days after infestation
Method: Example B4: Activity Against Frankliniella occidentalis (Western Flower Thrips)
as §1, with “in” for “in a”, “plates” for “plate”, “[…]” for “10′000 ppm”, “drying” for “drying,”, “a Frankliniella” for “an aphid”, “7” for “6”

[7] = system: Myzus persicae (Green Peach Aphid); experiment: Activity against Myzus persicae, roots of infested pea seedlings in test solution; conditions: 144 h, test rate of 24 ppm, 6 days
Method: Example B6: Activity Against Myzus persicae (Green Peach Aphid)
Roots of pea seedlings infested with an aphid population of mixed ages were placed directly in the aqueous test solutions prepared from 10′000 DMSO stock solutions. The samples were assessed for mortality 6 days after placing seedlings in test solutions.

[8] = system: Myzus persicae (Green Peach Aphid); experiment: Activity against Myzus persicae, sucrose solution under Parafilm; conditions: 120 h, test rate of 12 ppm, mixed with sucrose solution, 5 days after infestation
From the text: Example B7: Activity Against Myzus persicae (Green Peach Aphid)
Test compounds from 10′000 ppm DMSO stock solutions were applied by pipette into 24-well microtiter plates and mixed with sucrose solution. The plates were closed with a stretched Parafilm. A plastic stencil with 24 holes was placed onto the plate and infested pea seedlings were placed directly on the Parafilm. The infested plate was closed with a gel blotting paper and another plastic stencil and then turned upside down. The samples were assessed for mortality 5 days after infestation. […] A30 and A32.

[9] = system: Plutella xylostella (Diamond Back Moth); experiment: Activity against Plutella xylostella, treated artificial diet; conditions: 120 h, application rate of 200 ppm, L2 larvae on artificial diet, 5 days after infestation, read-out: effect in at least one of the two categories (mortality or growth inhibition)
Method: Example B8: Activity Against Plutella xylostella (Diamond Back Moth)
24-well microtiter plates with artificial diet were treated with aqueous test solutions prepared from 10′000 ppm DMSO stock solutions by pipetting. After drying, the plates were infested with L2 larvae (10 to 15 per well). The samples were assessed for mortality and growth inhibition in comparison to untreated samples 5 days after infestation.

[10] = system: Spodoptera littoralis (Egyptian Cotton Leaf Worm); experiment: Activity against Spodoptera littoralis, sprayed cotton leaf discs; conditions: foliar, 72 h, application rate of 200 ppm, L1 larvae on cotton leaf discs, 3 days after infestation, read-out: control (at least one of mortality, anti-feedant effect, growth inhibition)
Method: Example B9: Activity Against Spodoptera littoralis (Egyptian Cotton Leaf Worm)
Cotton leaf discs were placed on agar in 24-well microtiter plates and sprayed with aqueous test solutions prepared from 10′000 ppm DMSO stock solutions. After drying the leaf discs were infested with five L1 larvae. The samples were assessed for mortality, anti-feedant effect, and growth inhibition in comparison to untreated samples 3 days after infestation. Control of Spodoptera littoralis by a test sample is when at least one of mortality, anti-feedant effect, and growth inhibition is higher than the untreated sample.

[11] = system: Spodoptera littoralis (Egyptian Cotton Leaf Worm); experiment: Activity against Spodoptera littoralis, compound in agar taken up by lettuce; conditions: 144 h, test rate of 12.5 ppm, lettuce root uptake, 6 days after infestation, read-out: effect in at least one of the three categories (mortality, anti-feedancy, or growth inhibition)
From the text: Example B10: Activity Against Spodoptera littoralis (Egyptian Cotton Leaf Worm)
(§2) Test compounds were applied by pipette from 10′000 ppm DMSO stock solutions into 24-well plates and mixed with agar. Lettuce seeds were placed on the agar and the multi well plate was closed by another plate which contains also agar. After 7 days the roots have absorbed the compound and the lettuce has grown into the lid plate. The lettuce leafs were now cut off into the lid plate. Spodoptera eggs were pipetted through a plastic stencil on a humid gel blotting paper and the plate closed with it. The samples were assessed for mortality, anti-feedant effect and growth inhibition in comparison to untreated samples 6 days after infestation.

[12] = system: Spodoptera littoralis (Egyptian Cotton Leaf Worm); experiment: Activity against Spodoptera littoralis, systemic activity; conditions: 144 h, test rate of 12.5 ppm, in agar, lettuce root uptake, 6 days after infestation
From the text: Example B11: Activity Against Spodoptera littoralis (Egyptian Cotton Leaf Worm), Systemic Activity
as §2, with “mortality” for “mortality, anti-feedant effect and growth inhibition in comparison to untreated samples”

[13] = system: Thrips tabaci (Onion Thrips); experiment: Activity against Thrips tabaci, feeding/contact activity; conditions: foliar, 144 h, application rate of 200 ppm, thrips population of mixed ages on sunflower leaf discs, 6 days after infestation
Method: Example B13: Activity Against Thrips tabaci (Onion Thrips) Feeding/Contact Activity
as §1, with “in” for “in a”, “plates” for “plate”, “drying” for “drying,”, “a thrips” for “an aphid”

[14] = system: Aedes aegypti (Yellow Fever Mosquito); experiment: whole plant or invertebrate; conditions: 48 h, test rate of 5 ppm, L2 larvae in 96-well plates, incubation period of 2 days, read-out: effect in at least one of the two categories (mortality or growth inhibition)
Method: Example B14: Activity Against Aedes aegypti (Yellow Fever Mosquito)
10 to 15 Aedes larvae (L2) together with a nutrition mixture were placed in 96-well microtiter plates. Test compounds were pipetted into the wells. After an incubation period of 2 days insects were assessed for mortality and growth inhibition.

CCSc1cc(Br)cnc1-c1nc2cc(C(F)(F)F)n(C)c(=O)c2n1C [Compound A20, 2-(5-bromo-3-ethylsulfanyl-2-pyridyl)-3,5-dimethyl-6-(trifluoromethyl)imidazo[4,5-c]pyridin-4-one]
≥ 80%: mortality at 200 ppm [1] | mortality at 200 ppm [2] | mortality at 200 ppm [3]

CCS(=O)(=O)c1cc(C(F)(F)F)cnc1-c1nc2cc(C(F)(F)F)n(C)c(=O)c2n1C [Compound A1, 2-[3-ethylsulfonyl-5-(trifluoromethyl)-2-pyridyl]-3,5-dimethyl-6-(trifluoromethyl)imidazo[4,5-c]pyridin-4-one]
≥ 80%: mortality at 200 ppm [4] | mortality at 200 ppm [5] | mortality at 200 ppm [1] | mortality at 200 ppm [6] | mortality at 200 ppm [2] | mortality at 24 ppm [7] | mortality at 12 ppm [8] | percent effect (mortality or growth inhibition) at 200 ppm [9] | percent control (mortality, anti-feedant effect or growth inhibition) at 200 ppm [10] | percent control (mortality, anti-feedancy or growth inhibition) at 12.5 ppm [11] | mortality at 12.5 ppm [12] | mortality at 200 ppm [13] | percent effect (mortality or growth inhibition) at 5 ppm [14]
